{"source": "ChEMBL document CHEMBL6103592", "about": "“Discovery of novel thiazole-pleuromutilin derivatives with potent antibacterial activity” (Eur J Med Chem, 2025)", "key": {"[1]": {"test": "Acute toxicity in rat assessed as absolute spleen weight at 2000 mg/kg, po administered for 7 days followed by readministration after 7 days and measured at 14 days (reference value: 0.53 +/- 0.04 g)", "format": "organism-based", "conditions": "in vivo, 336 h, time 14 day"}, "Mycoplasma": {"test_system": "Mycoplasma", "test": "Antibacterial activity against Mycoplasma F3 assessed as inhibition of visible bacterial growth incubated for 24 hrs by CLSI based broth microdilution method", "format": "functional"}, "[2]": {"test": "Acute toxicity in rat assessed as pathological changes in lung at 2000 mg/kg, po measured for 14 days", "format": "organism-based", "conditions": "in vivo, 336 h, time 14 day"}, "[3]": {"test": "Acute toxicity in rat assessed as relative lung weight at 2000 mg/kg, po measured for 7 days (reference value: 0.58 +/- 0.03%)", "format": "organism-based", "conditions": "in vivo, 168 h, time 7 day"}, "[4]": {"test": "Acute toxicity in rat assessed as pathological changes in kidney at 2000 mg/kg, po measured for 14 days", "format": "organism-based", "conditions": "in vivo, 336 h, time 14 day"}, "Staphylococcus aureus [5]": {"test_system": "Staphylococcus aureus", "test": "Bactericidal activity against methicillin-resistant Staphylococcus aureus ATCC 43300 assessed as increase in colony forming unit count at 1 times MIC incubated after 8 hrs by time-kill assay", "format": "functional, organism-based"}, "[6]": {"test": "Acute toxicity in rat assessed as necrosis of epithelial cells at 2000 mg/kg, po measured for 14 days by H and E staining based analysis", "format": "organism-based", "conditions": "in vivo, 336 h, time 14 day"}, "Staphylococcus aureus [7]": {"test_system": "Staphylococcus aureus", "test": "Antibacterial activity against methicillin-resistant Staphylococcus aureus ATCC 43300 assessed as post antibiotic effect at 2 times MIC measured after 1 hr", "format": "functional"}, "Escherichia coli": {"test_system": "Escherichia coli", "test": "Antibacterial activity against Escherichia coli ATCC 25922 assessed as inhibition of visible bacterial growth incubated for 24 hrs by CLSI based broth microdilution method", "format": "functional"}, "Staphylococcus aureus [8]": {"test_system": "Staphylococcus aureus", "test": "Antibacterial activity against methicillin-resistant Staphylococcus aureus ATCC 43300 assessed as reduction in bacterial proteins level at 0.5 to 2 microg/ml measured for 4 hrs", "format": "functional, organism-based", "conditions": "dose 0.5-2 µg/ml"}, "[9]": {"test": "Acute toxicity in rat assessed as necrosis of glandular epithelial cells at 2000 mg/kg, po measured for 14 days by H and E staining based analysis", "format": "organism-based", "conditions": "in vivo, 336 h, time 14 day"}, "Staphylococcus aureus [10]": {"test_system": "Staphylococcus aureus", "test": "Bactericidal activity against methicillin-resistant Staphylococcus aureus ATCC 43300 assessed as log reduction in bacterial count count at 6 times MIC incubated at 24 hrs by time-kill assay", "format": "functional"}, "[11]": {"test": "Acute toxicity in rat assessed as degeneration of endometrial epithelial cells at 2000 mg/kg, po measured for 14 days by H and E staining based analysis", "format": "organism-based", "conditions": "in vivo, 336 h, time 14 day"}, "[12]": {"test": "Acute toxicity in rat assessed as tremors at 2000 mg/kg, po measured for 14 days", "format": "organism-based", "conditions": "in vivo, 336 h, time 14 day"}, "[13]": {"test": "Acute toxicity in rat assessed as pathological changes in heart at 2000 mg/kg, po measured for 14 days", "format": "organism-based", "conditions": "in vivo, 336 h, time 14 day"}, "Enterococcus faecalis": {"test_system": "Enterococcus faecalis", "test": "Antibacterial activity against Enterococcus faecalis assessed as inhibition of visible bacterial growth incubated for 24 hrs by CLSI based broth microdilution method", "format": "functional"}, "[14]": {"test": "Acute toxicity in rat assessed as absolute spleen weight at 2000 mg/kg, po measured for 7 days (reference value: 0.53 +/- 0.04g)", "format": "organism-based", "conditions": "in vivo, 168 h, time 7 day"}, "Staphylococcus aureus [15]": {"test_system": "Staphylococcus aureus", "test": "(§1) Antibacterial efficacy against methicillin-resistant Staphylococcus aureus ATCC 43300 infected in cyclophosphamide-induced neutropenic systemic infection Kunming mouse model assessed as inflammatory cell infiltration in lung at 20 mg/kg, iv pretreated with cyclophosphamide for 1 hr followed by compound addition and measured after 5 days by light microscopic analysis", "format": "functional, organism-based", "conditions": "time 5.0 day"}, "[16]": {"test": "Acute toxicity in rat assessed as absolute uterus weight at 2000 mg/kg, po administered for 7 days followed by readministration after 7 days and measured at 14 days (reference value: 0.52 +/- 0.18 g)", "format": "organism-based", "conditions": "in vivo, 336 h, time 14 day"}, "[17]": {"test": "Cytotoxicity against human HEK293T cells assessed as cell viability at 200 micromol/L incubated for 24 hrs by CCK-8 assay relative to control", "format": "toxicity, cell-based, HEK-293T", "conditions": "dose 200 µmol/L, read-out: Activity"}, "[18]": {"test": "Acute toxicity in rat assessed as reduction in water consumption at 2000 mg/kg, po measured at 24 hrs", "format": "organism-based", "conditions": "in vivo"}, "Staphylococcus aureus [19]": {"test_system": "Staphylococcus aureus", "test": "as §1, with “reduction in bacterial load” for “inflammatory cell infiltration”, “days” for “days by light microscopic analysis”", "format": "functional", "conditions": "time 5 day"}, "[20]": {"test": "Acute toxicity in rat assessed as relative liver weight at 2000 mg/kg, po measured for 7 days (reference value: 4.36 +/- 0.23 %)", "format": "organism-based", "conditions": "in vivo, 168 h, time 7 day"}, "[21]": {"test": "Acute toxicity in rat assessed as degeneration of glandular epithelial cells at 2000 mg/kg, po measured for 14 days by H and E staining based analysis", "format": "organism-based", "conditions": "in vivo, 336 h, time 14 day"}, "[22]": {"test": "Acute toxicity in rat assessed as pathological changes in liver at 2000 mg/kg, po measured for 14 days", "format": "organism-based", "conditions": "in vivo, 336 h, time 14 day"}, "Staphylococcus aureus [23]": {"test_system": "Staphylococcus aureus", "test": "Antibacterial activity against methicillin resistant Staphylococcus aureus", "format": "functional"}, "[24]": {"test": "Acute toxicity in rat assessed as body weight change at 2000 mg/kg, po measured at 24 hrs", "format": "organism-based", "conditions": "in vivo"}, "[25]": {"test": "Acute toxicity in po dosed rat assessed as lethal dose measured for 14 days […]", "format": "organism-based", "conditions": "in vivo, time 14 day"}, "[26]": {"test": "Acute toxicity in rat assessed as relative kidney weight at 2000 mg/kg, po measured for 7 days (reference value: 0.83 +/- 0.08%)", "format": "organism-based", "conditions": "in vivo, 168 h, time 7 day"}, "[27]": {"test": "Acute toxicity in rat assessed as relative heart weight at 2000 mg/kg, po administered for 7 days followed by readministration after 7 days and measured at 14 days (reference value: 0.40 +/- 0.06 %)", "format": "organism-based", "conditions": "in vivo, 336 h, time 14 day"}, "[28]": {"test": "Acute toxicity in rat assessed as relative uterus weight at 2000 mg/kg, po administered for 7 days followed by readministration after 7 days and measured at 14 days (reference value: 0.27 +/- 0.09%)", "format": "organism-based", "conditions": "in vivo, 336 h, time 14 day"}, "[29]": {"test": "Acute toxicity in rat assessed as absolute liver weight at 2000 mg/kg, po measured for 7 days (reference value: 8.43 +/- 0.43 g)", "format": "organism-based", "conditions": "in vivo, 168 h, time 7 day"}, "[30]": {"test": "Acute toxicity in rat assessed as swelling in uterus at 2000 mg/kg, po measured for 14 days by H and E staining based analysis", "format": "organism-based", "conditions": "in vivo, 336 h, time 14 day"}, "Staphylococcus aureus [31]": {"test_system": "Staphylococcus aureus", "test": "Antibacterial activity against methicillin-resistant Staphylococcus aureus ATCC 43300 assessed as post antibiotic effect at 4 times MIC measured after 1 hr", "format": "functional"}, "Staphylococcus aureus [32]": {"test_system": "Staphylococcus aureus", "test": "Bactericidal activity against methicillin-resistant Staphylococcus aureus ATCC 43300 at 1 to 6 times MIC incubated upto 24 hrs by time-kill assay", "format": "functional, organism-based"}, "Streptococcus agalactiae": {"test_system": "Streptococcus agalactiae", "test": "Antibacterial activity against Streptococcus agalactiae assessed as inhibition of visible bacterial growth incubated for 24 hrs by CLSI based broth microdilution method", "format": "functional"}, "Staphylococcus aureus [33]": {"test_system": "Staphylococcus aureus", "test": "Antibacterial activity against Staphylococcus aureus ATCC 25923 assessed as inhibition of visible bacterial growth incubated for 24 hrs by CLSI based broth microdilution method", "format": "functional"}, "[34]": {"test": "Acute toxicity in rat assessed as relative spleen weight at 2000 mg/kg, po measured for 7 days (reference value: 0.27 +/- 0.02%)", "format": "organism-based", "conditions": "in vivo, 168 h, time 7 day"}, "[35]": {"test": "Acute toxicity in rat assessed as relative uterus weight at 2000 mg/kg, po measured for 7 days (reference value: 0.27 +/- 0.09%)", "format": "organism-based", "conditions": "in vivo, 168 h, time 7 day"}, "[36]": {"test": "Acute toxicity in rat assessed as relative heart weight at 2000 mg/kg, po measured for 7 days (reference value: 0.40 +/- 0.06%)", "format": "organism-based", "conditions": "in vivo, 168 h, time 7 day"}}, "note": "The source made the active and inactive calls. The rule behind the calls is not given here.", "data": [{"smiles": "C=C[C@]1(C)C[C@@H](OC(=O)CSc2nc(OC(=O)c3ccc(C(C)(C)C)cc3)cs2)[C@]2(C)[C@H](C)CC[C@]3(CCC(=O)[C@H]32)[C@@H](C)[C@@H]1O", "values": [{"measurement": "Activity", "setting": "[1]", "result": 0.53, "unit": "g"}, {"measurement": "MIC", "setting": "Mycoplasma", "result": 0.125, "unit": "µg/mL"}, {"measurement": "Activity", "setting": "[2]", "result": "Non-toxic"}, {"measurement": "Activity", "setting": "[3]", "result": 0.58, "unit": "%"}, {"measurement": "Activity", "setting": "[4]", "result": "Non-toxic"}, {"measurement": "Activity", "setting": "Staphylococcus aureus [5]", "result": "Active"}, {"measurement": "Activity", "setting": "[6]", "result": "Non-toxic"}, {"measurement": "PAE", "setting": "Staphylococcus aureus [7]", "result": 1.09, "unit": "h"}, {"measurement": "MIC", "setting": "Escherichia coli", "result": "> 32", "unit": "µg/mL"}, {"measurement": "Activity", "setting": "Staphylococcus aureus [8]", "result": "Active"}, {"measurement": "Activity", "setting": "[9]", "result": "Non-toxic"}, {"measurement": "log(activity)", "setting": "Staphylococcus aureus [10]", "result": 3.08}, {"measurement": "Activity", "setting": "[11]", "result": "Non-toxic"}, {"measurement": "Activity", "setting": "[12]", "result": "Non-toxic"}, {"measurement": "Activity", "setting": "[13]", "result": "Non-toxic"}, {"measurement": "MIC", "setting": "Enterococcus faecalis", "result": "> 32", "unit": "µg/mL"}, {"measurement": "Activity", "setting": "[14]", "result": 0.53, "unit": "g"}, {"measurement": "Activity", "setting": "Staphylococcus aureus [15]", "result": "Active"}, {"measurement": "Activity", "setting": "[16]", "result": 0.5, "unit": "g"}, {"measurement": "viability at 24 h, 200 µM", "setting": "[17]", "result": 60, "unit": "%"}, {"measurement": "Activity", "setting": "[18]", "result": "Non-toxic"}, {"measurement": "Activity", "setting": "Staphylococcus aureus [19]", "result": 0.9, "unit": "log10CFU"}, {"measurement": "Activity", "setting": "[20]", "result": 4.34, "unit": "%"}, {"measurement": "Activity", "setting": "[21]", "result": "Non-toxic"}, {"measurement": "Activity", "setting": "[22]", "result": "Non-toxic"}, {"measurement": "MIC", "setting": "Staphylococcus aureus [23]", "result": 0.5, "unit": "µg/mL"}, {"measurement": "Activity", "setting": "[24]", "result": "Non-toxic"}, {"measurement": "LD50 at 336 h", "setting": "[25]", "result": 2000, "unit": "mg/kg"}, {"measurement": "Activity", "setting": "[26]", "result": 0.8, "unit": "%"}, {"measurement": "Activity", "setting": "[27]", "result": 0.36, "unit": "%"}, {"measurement": "Activity", "setting": "[28]", "result": 0.23, "unit": "%"}, {"measurement": "Activity", "setting": "[29]", "result": 8.5, "unit": "g"}, {"measurement": "Activity", "setting": "[30]", "result": "Non-toxic"}, {"measurement": "PAE", "setting": "Staphylococcus aureus [31]", "result": 1.85, "unit": "h"}, {"measurement": "Activity", "setting": "Staphylococcus aureus [32]", "result": "Dose-dependent-effect"}, {"measurement": "MIC", "setting": "Streptococcus agalactiae", "result": 0.063, "unit": "µg/mL"}, {"measurement": "MIC", "setting": "Staphylococcus aureus [33]", "result": 0.25, "unit": "µg/mL"}, {"measurement": "Activity", "setting": "[34]", "result": 0.28, "unit": "%"}, {"measurement": "Activity", "setting": "[35]", "result": 0.27, "unit": "%"}, {"measurement": "Activity", "setting": "[36]", "result": 0.39, "unit": "%"}]}]}
